The text below walks through data of patent US12129237B2, “Substituted diaminocarboxamide and diaminocarbonitrile pyrimidines, compositions thereof, and methods of treatment therewith” (SIGNAL PHARMACEUTICALS, LLC, priority 2011, dated 2024).

T1 sequence (P45983 whole entry): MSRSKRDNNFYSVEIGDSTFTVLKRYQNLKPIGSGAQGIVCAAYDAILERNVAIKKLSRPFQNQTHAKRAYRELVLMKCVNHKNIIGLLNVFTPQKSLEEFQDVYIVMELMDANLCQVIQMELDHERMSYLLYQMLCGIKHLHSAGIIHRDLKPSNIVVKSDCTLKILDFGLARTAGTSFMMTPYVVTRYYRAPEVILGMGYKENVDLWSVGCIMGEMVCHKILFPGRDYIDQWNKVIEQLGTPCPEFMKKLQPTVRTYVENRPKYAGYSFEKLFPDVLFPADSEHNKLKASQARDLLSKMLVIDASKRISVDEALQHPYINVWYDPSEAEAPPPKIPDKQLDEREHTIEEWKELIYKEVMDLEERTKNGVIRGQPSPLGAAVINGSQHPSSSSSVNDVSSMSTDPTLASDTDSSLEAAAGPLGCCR

One experiment concerns the target T1, JNK1 (Homo sapiens, UniProt P45983).
T1 construct: purchased Carna Biosciences
Briefly: JNK1 biochemical assays (one or more of: time resolved fluorescence, Z'-LYTE Cascade, radioactive). Particulars: Table 2; JNK1 IC50 activity level; read-out: Act. Level.
Method: JNK1 Assay. A 384-well time resolved fluorescence assay was used to monitor JNK1 activity. The JNK1 assay was run in the following assay buffer: 50 mM HEPES, 10 mM MgCl2, 1 mM EGTA, 2 mM DTT, and 0.01% Tween 20. To initiate the reaction 100 nM of ULight™-labeled 4EBP1 peptide (Perkin-Elmer) and 5 μM of ATP were mixed with 500 pM of JNK1 (Carna Biosciences), for a total assay volume of 20 μL in each well. The assay was incubated at room temperature for 1 h and terminated using a mixture of 30 mM EDTA and 4 nM Eu-anti-4EBP1, by adding 20 μL of stop solution to each well. Plates were read on a Perkin-Elmer Envision Reader.
JNK1 Assay. The JNK1 Z′-LYTE® Cascade kinase assay was run in the following buffer: 50 mM HEPES at pH 7.5, 0.01% BRIJ-35, 10 mM MgCl2, 1 mM EGTA, and 1 mM DTT. […] The assay was incubated at room temperature for 1 h. […] The data was then read on a fluorescence plate reader and analyzed.
JNK1 assay. The radioactive JNK kinase assay was carried out in a 96-well plate format at a final volume of 100 μL. […] JNK1 was diluted in the following dilution buffer (20 mM HEPES pH 7.6, 0.1 mM EDTA, 2.5 mM MgCl2, 0.004% (w/v) Triton X100, 2 μg/ml Leupeptin, 20 mM B-glycerol phosphate, 0.1 mM Na3VO4 dithiothreitol) and then pre-mixed with cJun diluted in the substrate solution buffer (20 mM HEPES pH 7.6, 50 mM NaCl, 0.1 mM EDTA, 2.5 mM MgCl2, 0.05% (w/v) Triton X100). […] The enzyme, substrate and inhibitor mixture was allowed to equilibrate at room temperature for 15 minutes. The reaction was started by the addition of 10 μL of 10×ATP in kinase buffer (130 mM MgCl2, 6 mM dithiothreitol, 150 mM para-nitrophenyl phosphate, 100 μCi/ml γ-[^33P]-ATP). Reactions were allowed to proceed for 60 minutes before precipitation of protein via trichloroacetic acid (7.2% TCA final). […] The precipitate was washed with Phosphate Buffered Saline and the amount of phosphate incorporated into cJun was quantified by scintillation counting using a Packard Topcount-NXT. All assays were conducted under conditions where phosphate incorporation was linear with respect to time and enzyme concentration.
For the molecule `C[C@H](Nc1ncc(C(N)=O)c(N[C@@H]2CCC[C@H](O)C2)n1)c1ccc(F)cc1` [Example B-90, 2-((S)-1-(4-fluorophenyl)ethylamino)-4-((1R,3S)-3-hydroxycyclohexylamino)pyrimidine-5-carboxamide], the IC50 was in the range of 1 to 10 µM. For `CC(C)Nc1nc(N[C@H]2CCc3cnccc3C2)ncc1C(N)=O` [Example B-91, (S)-4-(isopropylamino)-2-(5,6,7,8-tetrahydroisoquinolin-6-ylamino)pyrimidine-5-carboxamide], the IC50 fell in the range of 0.2 to 0.8 µM.

In the case of `CC(C)Nc1nc(N[C@@H]2CCc3cnccc3C2)ncc1C(N)=O` [Example B-92, (R)-4-(isopropylamino)-2-(5,6,7,8-tetrahydroisoquinolin-6-ylamino)pyrimidine-5-carboxamide], the IC50 was under 0.2 µM.

For `C[C@@H]1CC[C@@H](Nc2nc(N[C@H]3CCc4ncccc4C3)ncc2C(N)=O)C[C@H]1O` [Example B-93, 4-((1R,3R,4R)-3-hydroxy-4-methylcyclohexylamino)-2-((S)-5,6,7,8-tetrahydroquinolin-6-ylamino)pyrimidine-5-carboxamide], the IC50 is under 0.2 µM. Turning to `C[C@@H]1CC[C@@H](Nc2nc(N[C@@H]3CCc4ncccc4C3)ncc2C(N)=O)C[C@H]1O` [Example B-94, 4-((1R,3R,4R)-3-hydroxy-4-methylcyclohexylamino)-2-((R)-5,6,7,8-tetrahydroquinolin-6-ylamino)pyrimidine-5-carboxamide], the IC50 was under 0.2 µM. On the same count and under the same terms, to `NC(=O)c1cnc(N[C@H]2CCc3cnccc3C2)nc1N[C@@H]1CCC[C@H](O)C1` [Example B-95, 4-((1R,3S)-3-hydroxycyclohexylamino)-2-((S)-5,6,7,8-tetrahydroisoquinolin-6-ylamino)pyrimidine-5-carboxamide] belongs under 0.2 µM; to `NC(=O)c1cnc(N[C@@H]2CCc3cnccc3C2)nc1N[C@@H]1CCC[C@H](O)C1` [Example B-96, 4-((1R,3S)-3-hydroxycyclohexylamino)-2-((R)-5,6,7,8-tetrahydroisoquinolin-6-ylamino)pyrimidine-5-carboxamide], under 0.2 µM. `NC(=O)c1cnc(N[C@H]2CCc3ncccc3C2)nc1N[C@@H]1CCCC[C@H](O)C1` [Example B-97, 4-((1R,3S)-3-hydroxycycloheptylamino)-2-((S)-5,6,7,8-tetrahydroquinolin-6-ylamino)pyrimidine-5-carboxamide]: the IC50 was under 0.2 µM. On to `NC(=O)c1cnc(N[C@@H]2CCc3ncccc3C2)nc1N[C@@H]1CCCC[C@H](O)C1` [Example B-98, 4-((1R,3S)-3-hydroxycycloheptylamino)-2-((R)-5,6,7,8-tetrahydroquinolin-6-ylamino)pyrimidine-5-carboxamide], for which the IC50 was under 0.2 µM. Take `CC1(C)CCC(Nc2ncc(C(N)=O)c(N[C@@H]3CCC[C@H](O)C3)n2)c2ccccc21` (stereo partly drawn) [Example B-99, 2-(4,4-dimethyl-1,2,3,4-tetrahydronaphthalen-1-ylamino)-4-((1R,3S)-3-hydroxycyclohexylamino)pyrimidine-5-carboxamide]: the IC50 was 0.2 to 0.8 µM. Consider `C[C@]1(O)CCC[C@@H](Nc2nc(N[C@@H]3CCc4ncccc4C3)ncc2C(N)=O)C1` [Example B-101, 4-((1R,3S)-3-hydroxy-3-methylcyclohexylamino)-2-((R)-5,6,7,8-tetrahydroquinolin-6-ylamino)pyrimidine-5-carboxamide], for which the IC50 was under 0.2 µM.

Consider `C[C@]1(O)CCC[C@@H](Nc2nc(N[C@H]3CCc4ncccc4C3)ncc2C(N)=O)C1` [Example B-102, 4-((1R,3S)-3-hydroxy-3-methylcyclohexylamino)-2-((S)-5,6,7,8-tetrahydroquinolin-6-ylamino)pyrimidine-5-carboxamide], for which the IC50 is under 0.2 µM.

Still in this experiment, the particulars now being: Table 3; JNK1 IC50 activity level; read-out: Act. Level.
Consider `CCO[C@H]1CC[C@H](Nc2ncc(C#N)c(N[C@H]3CCC[C@@H](O)C3)n2)CC1` [Example C-1, 2-((1r,4S)-4-ethoxycyclohexylamino)-4-((1S,3R)-3-hydroxycyclohexylamino) pyrimidine-5-carbonitrile], for which the IC50 lay in the range of 0.2 to 0.8 µM. Take `CCO[C@H]1CC[C@H](Nc2ncc(C#N)c(N[C@@H]3CCC[C@H](O)C3)n2)CC1` [Example C-2, 2-((1r,4R)-4-ethoxycyclohexylamino)-4-((1R,3S)-3-hydroxycyclohexylamino) pyrimidine-5-carbonitrile]: the IC50 was under 0.2 µM. Still for that read-out and setting: to `N#Cc1cnc(NC2CCC(F)(F)CC2)nc1N[C@@H]1CCC[C@H](O)C1` [Example C-3, 2-(4,4-difluorocyclohexylamino)-4-((1R,3S)-3-hydroxycyclohexylamino) pyrimidine-5-carbonitrile] belongs 0.2 to 0.8 µM; to `CO[C@H]1CC[C@H](Nc2ncc(C#N)c(N[C@@H]3CCC[C@H](O)C3)n2)CC1` [Example C-4, 4-((1R,3S)-3-hydroxycyclohexylamino)-2-((1r,4R)-4-methoxycyclohexylamino) pyrimidine-5-carbonitrile], under 0.2 µM. Take `N#Cc1cnc(NC2CCOCC2)nc1N[C@@H]1CCC[C@H](O)C1` [Example C-5, 4-((1R,3S)-3-hydroxycyclohexylamino)-2-(tetrahydro-2H-pyran-4-ylamino)pyrimidine-5-carbonitrile]: the IC50 lay in the range of 0.2 to 0.8 µM. Still for that read-out and setting: to `N#Cc1cnc(N[C@H]2CC[C@H](OC(F)F)CC2)nc1N[C@@H]1CCC[C@H](O)C1` [Example C-6, 2-((1r,4R)-4-(difluoromethoxy)cyclohexylamino)-4-((1R,3S)-3-hydroxycyclohexylamino) pyrimidine-5-carbonitrile] belongs under 0.2 µM. For `CC(C)(C)Nc1ncc(C#N)c(N[C@@H]2CCC[C@H](O)C2)n1` [Example C-7, 2-(tert-butylamino)-4-((1R,3S)-3-hydroxycyclohexylamino) pyrimidine-5-carbonitrile], the IC50 fell in the range of 0.2 to 0.8 µM. For `N#Cc1cnc(N[C@H]2CC[C@H](O)CC2)nc1N[C@@H]1CCC[C@H](O)C1` [Example C-8, 4-((1R,3S)-3-hydroxycyclohexylamino)-2-((1r,4R)-4-hydroxycyclohexylamino) pyrimidine-5-carbonitrile], the IC50 was under 0.2 µM. Same read-out and setting: to `CN(C)C(=O)[C@H]1CC[C@H](Nc2ncc(C#N)c(N[C@@H]3CCC[C@H](O)C3)n2)CC1` [Example C-9, (1R,4r)-4-(5-cyano-4-((1R,3S)-3-hydroxycyclohexylamino)pyrimidin-2-ylamino)-N,N-dimethylcyclohexanecarboxamide] belongs under 0.2 µM. On the same count and under the same terms, to `N#Cc1cnc(NC2CCCCC2)nc1N[C@@H]1CCC[C@H](O)C1` [Example C-10, 2-(cyclohexylamino)-4-((1R,3S)-3-hydroxycyclohexylamino) pyrimidine-5-carbonitrile] belongs under 0.2 µM; to `CN[C@H]1CC[C@H](Nc2ncc(C#N)c(N[C@@H]3CCC[C@H](O)C3)n2)CC1` [Example C-11, 4-((1R,3S)-3-hydroxycyclohexylamino)-2-((1r,4R)-4-(methylamino)cyclohexylamino) pyrimidine-5-carbonitrile], under 0.2 µM; to `CO[C@H]1CC[C@H](Nc2ncc(C#N)c(N[C@H]3CC[C@@H](O)CC3)n2)CC1` [Example C-12, 4-((1s,4s)-4-hydroxycyclohexylamino)-2-((1r,4r)-4-methoxycyclohexylamino) pyrimidine-5-carbonitrile], 0.2 to 0.8 µM.

As for `CC(=O)N[C@H]1CC[C@H](Nc2ncc(C#N)c(N[C@@H]3CCC[C@H](O)C3)n2)CC1` [Example C-13, N-((1R,4r)-4-(5-cyano-4-((1R,3S)-3-hydroxycyclohexylamino)pyrimidin-2-ylamino)cyclohexyl)acetamide], the IC50 was under 0.2 µM. For `N#Cc1cnc(N[C@H]2CC[C@H](OCC(F)(F)F)CC2)nc1N[C@@H]1CCC[C@H](O)C1` [Example C-14, 4-((1R,3S)-3-hydroxycyclohexylamino)-2-((1r,4R)-4-(2,2,2-trifluoroethoxy)cyclohexylamino) pyrimidine-5-carbonitril], the IC50 was under 0.2 µM.

With `CO[C@H]1CC[C@H](Nc2ncc(C#N)c(N[C@H]3CC[C@H](O)CC3)n2)CC1` [Example C-15, 4-((1r,4r)-4-hydroxycyclohexylamino)-2-((1r,4r)-4-methoxycyclohexylamino) pyrimidine-5-carbonitrile], the IC50 lay in the range of 0.8 to 1 µM. The same measure, in the same setting: to `CO[C@H]1CC[C@H](Nc2ncc(C#N)c(N[C@@H]3CCC[C@@H]3CO)n2)CC1` [Example C-16, 4-((1R,2S)-2-(hydroxymethyl)cyclopentylamino)-2-((1r,4R)-4-methoxycyclohexylamino) pyrimidine-5-carbonitrile] belongs under 0.2 µM; to `CO[C@H]1CC[C@H](Nc2ncc(C#N)c(NC(C)C)n2)CC1` [Example C-17, 4-(isopropylamino)-2-((1r,4r)-4-methoxycyclohexylamino) pyrimidine-5-carbonitrile], 0.8 to 1 µM; to `CO[C@H]1CC[C@H](Nc2ncc(C#N)c(N[C@@H]3CCC[C@H]3O)n2)CC1` [Example C-18, 4-((1R,2R)-2-hydroxycyclopentylamino)-2-((1r,4R)-4-methoxycyclohexylamino) pyrimidine-5-carbonitrile], under 0.2 µM.

On to `CO[C@H]1CC[C@H](Nc2ncc(C#N)c(N[C@@H]3CCC[C@](C)(O)C3)n2)CC1` [Example C-19, 4-((1R,3S)-3-hydroxy-3-methylcyclohexylamino)-2-((1r,4R)-4-methoxycyclohexylamino) pyrimidine-5-carbonitrile], for which the IC50 is under 0.2 µM. Regarding `CCO[C@H]1CC[C@H](Nc2ncc(C#N)c(NC3CCCCC3)n2)CC1` [Example C-20, 4-(cyclohexylamino)-2-((1r,4r)-4-ethoxycyclohexylamino) pyrimidine-5-carbonitrile], the IC50 is 0.2 to 0.8 µM. On the same count and under the same terms, to `CCO[C@H]1CC[C@H](Nc2ncc(C#N)c(NC3CCOCC3)n2)CC1` [Example C-21, 2-((1r,4r)-4-ethoxycyclohexylamino)-4-(tetrahydro-2H-pyran-4-ylamino)pyrimidine-5-carbonitrile] belongs 1 to 10 µM; to `CCO[C@H]1CC[C@H](Nc2ncc(C#N)c(N[C@H]3CC[C@@H](O)CC3)n2)CC1` [Example C-22, 2-((1r,4r)-4-ethoxycyclohexylamino)-4-((1s,4s)-4-hydroxycyclohexylamino) pyrimidine-5-carbonitrile], 0.2 to 0.8 µM.
